According to patent US9895422B2, “Combination of dopamine agonists plus first phase insulin secretagogues for the treatment of metabolic disorders” (VeroScience LLC, priority 2009, dated 2018):
Structures can show the parent of a compound that is named as a salt.

Experiments:
[1] = test system: Male Syrian hamsters known to develop insulin resistance and glucose intolerance; assay: Glucose tolerance test (GTT), similarly designed experiment with insulin as first phase insulin secretagogue; assay type: in vivo, Syrian hamster
Method: Male Syrian hamsters known to develop insulin resistance and glucose intolerance were purchased at 4 weeks of age and kept on rodent diet for 10 weeks at 72 degrees F. and a 14 hr:10 hr daily light:dark cycle. When animals were 14 weeks of age on this daily photoperiod (known to be insulin resistant and glucose intolerant under these conditions), bromocriptine mesylate was administered intraperitoneally (IP) for 2 weeks at 4 mg/kg per hamster 13 hours after light onset to half of the animals, while the other half received vehicle injections for 2 weeks.
After 2 weeks of treatment both Bromocriptine and vehicle groups were divided into two groups for a total of 4 groups: 1. Vehicle for 2 weeks and Vehicle at initiation of a glucose tolerance test (GTT); 2. […] Bromocriptine for 2 weeks and Vehicle at GTT; 4.
Blood was drawn from the jugular vein and blood glucose level was measured every 30 minutes for 2 hours after the glucose load administration.

[2] = test system: Male Syrian hamsters known to develop insulin resistance and glucose intolerance; assay: Glucose tolerance test (GTT) after 2 weeks of bromocriptine, with or without Exendin-4 at the GTT; assay type: in vivo, Syrian hamster; conditions: bromocriptine mesylate 4 mg/kg IP for 2 weeks, vehicle at GTT; 3 g/kg glucose; P<0.09

Molecule	reduction of glucose AUC over two hours after glucose administration ([1]; insulin 240 ng/kg IP immediately prior to glucose administration, P=0.64)	reduction of glucose AUC over two hours after glucose administration ([1]; bromocriptine for 2 weeks, insulin experiment, P=0.23) [%]	reduction of blood glucose Area Under Curve (AUC) during the GTT over two hours after glucose administration [2] [%]
insulin	not significantly reduced		
CC(C)C[C@H]1C(=O)N2CCC[C@H]2[C@]2(O)O[C@](NC(=O)[C@@H]3C=C4c5cccc6[nH]c(Br)c(c56)C[C@H]4N(C)C3)(C(C)C)C(=O)N12 [Bromocriptine, bromocriptine mesylate]		28	21
